Four compounds from ChEMBL document CHEMBL3108768 (ACS Med Chem Lett, 2014) can be followed below.

Experiment [1] in a line: Inhibition of STX (unknown origin)-induced toxicity in human HeLa cells assessed as protection against toxin-induced inhibition of protein biosynthesis by measuring incorporation of [14C]-leucine into cells preincubated for 1 hr followed by toxin challenge measured after 20 hrs by liquid scintillation counting analysis. In kind it is cell-based.
Experiment [2] has as its system HeLa. Kind of experiment: Inhibition of STX (unknown origin)-induced toxicity in human HeLa cells assessed as protection against toxin-induced inhibition of protein biosynthesis by measuring incorporation of [14C]-leucine into cells at 30 uM preincubated for 1 hr followed by toxin challenge measured after 20 hrs by liquid scintillation counting analysis relative to control. The class given is cell-based.

In general, EC50 refers to the concentration at which the effect is half-maximal.

In the case of `Cc1ccc(/C=N/c2ccccc2C(=O)Nc2ccccc2)s1`, in experiment [1], the EC50 was 27000 nM.
Turning to `Cc1nc(-c2ccc(C3N(C)c4ccc(F)cc4C(=O)N3c3ccccc3)s2)cs1` (racemic), the concentration giving a half-maximal response (EC50) in experiment [1] came out at 102 nM.
Consider `Cc1nc(-c2ccc([C@H]3N(C)c4ccc(F)cc4C(=O)N3c3ccccc3)s2)cs1`, for which the fold change (FC) in experiment [2] came out at 357. For the same compound, in experiment [1], the EC50 was 54 nM.
Taken in the same sequence, the figures for `Cc1nc(-c2ccc([C@@H]3N(C)c4ccc(F)cc4C(=O)N3c3ccccc3)s2)cs1` were 68 and 2400 nM.
